Data as given in paper PMC4770715, “LIM kinase inhibitors disrupt mitotic microtubule organization and impair tumor cell proliferation” (Oncotarget, 2015).

Key:
Experiment in all cases: biochemical
Parameters in all cases: KINOMEscan active-site competition binding, percent of control (100 = no competition)
Conditions in all cases: competition binding, percent control
PIK3CA(I800L) = PIK3CA(I800L) (Homo sapiens, UniProt P42336, I800L)
LKB1 = target: T1, LKB1 (Homo sapiens, UniProt Q15831)
T1 construct: gene STK11

EGFR(G719S) = EGFR(G719S) (Homo sapiens, UniProt P00533, G719S)
MINK = target: T2, MINK (Homo sapiens, UniProt Q8N4C8)
T2 construct: gene MINK1

NDR1 = target: T3, NDR1 (Homo sapiens, UniProt Q15208)
T3 construct: gene STK38
T3 sequence (Q15208 whole entry): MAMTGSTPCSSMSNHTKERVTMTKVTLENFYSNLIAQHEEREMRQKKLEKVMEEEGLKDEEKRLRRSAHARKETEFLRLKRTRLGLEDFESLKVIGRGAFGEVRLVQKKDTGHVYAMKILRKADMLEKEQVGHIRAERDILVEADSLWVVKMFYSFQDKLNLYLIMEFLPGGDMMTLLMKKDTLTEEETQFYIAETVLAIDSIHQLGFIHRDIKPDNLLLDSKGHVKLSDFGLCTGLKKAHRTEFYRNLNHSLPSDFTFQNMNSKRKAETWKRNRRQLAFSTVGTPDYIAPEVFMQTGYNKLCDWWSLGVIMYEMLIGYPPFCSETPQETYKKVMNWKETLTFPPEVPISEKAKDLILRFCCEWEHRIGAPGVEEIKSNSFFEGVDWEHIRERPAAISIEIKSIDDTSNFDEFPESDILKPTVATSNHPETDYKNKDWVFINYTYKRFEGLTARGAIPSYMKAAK

NIM1 = target: T4, NIM1 (Homo sapiens, UniProt Q8IY84)
T4 construct: gene NIM1K

DAPK3 = DAPK3 (Homo sapiens, UniProt O43293)
Sequence of DAPK3 (O43293 whole entry): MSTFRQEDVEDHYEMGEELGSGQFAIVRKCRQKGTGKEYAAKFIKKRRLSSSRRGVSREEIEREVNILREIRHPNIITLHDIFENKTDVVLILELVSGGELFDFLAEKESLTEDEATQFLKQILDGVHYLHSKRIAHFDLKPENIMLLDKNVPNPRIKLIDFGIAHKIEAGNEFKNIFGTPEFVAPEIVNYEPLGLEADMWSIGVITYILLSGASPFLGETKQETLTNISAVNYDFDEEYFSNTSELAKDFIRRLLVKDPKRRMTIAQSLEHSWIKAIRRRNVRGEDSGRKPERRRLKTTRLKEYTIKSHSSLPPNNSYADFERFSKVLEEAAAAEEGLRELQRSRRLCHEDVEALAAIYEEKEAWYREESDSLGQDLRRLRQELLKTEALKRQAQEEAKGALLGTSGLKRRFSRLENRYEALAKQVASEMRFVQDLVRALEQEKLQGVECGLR

p38-beta = target: T5, p38-beta (Homo sapiens, UniProt Q15759)
T5 construct: gene MAPK11
T5 sequence (Q15759 whole entry): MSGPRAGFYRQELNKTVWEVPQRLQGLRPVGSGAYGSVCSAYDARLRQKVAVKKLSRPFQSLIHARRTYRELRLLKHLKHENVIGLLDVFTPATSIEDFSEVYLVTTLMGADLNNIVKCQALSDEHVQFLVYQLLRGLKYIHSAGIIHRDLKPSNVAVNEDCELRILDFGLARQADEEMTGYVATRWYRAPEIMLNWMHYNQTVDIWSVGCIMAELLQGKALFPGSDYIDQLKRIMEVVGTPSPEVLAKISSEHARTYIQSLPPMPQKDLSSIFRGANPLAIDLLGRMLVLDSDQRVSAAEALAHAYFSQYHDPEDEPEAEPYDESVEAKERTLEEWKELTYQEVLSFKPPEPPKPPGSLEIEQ

EGFR(S752-I759del) = EGFR(S752-I759del) (Homo sapiens, UniProt P00533, DEL752-759)
LATS1 = LATS1 (Homo sapiens, UniProt O95835)
Sequence of LATS1 (O95835 whole entry): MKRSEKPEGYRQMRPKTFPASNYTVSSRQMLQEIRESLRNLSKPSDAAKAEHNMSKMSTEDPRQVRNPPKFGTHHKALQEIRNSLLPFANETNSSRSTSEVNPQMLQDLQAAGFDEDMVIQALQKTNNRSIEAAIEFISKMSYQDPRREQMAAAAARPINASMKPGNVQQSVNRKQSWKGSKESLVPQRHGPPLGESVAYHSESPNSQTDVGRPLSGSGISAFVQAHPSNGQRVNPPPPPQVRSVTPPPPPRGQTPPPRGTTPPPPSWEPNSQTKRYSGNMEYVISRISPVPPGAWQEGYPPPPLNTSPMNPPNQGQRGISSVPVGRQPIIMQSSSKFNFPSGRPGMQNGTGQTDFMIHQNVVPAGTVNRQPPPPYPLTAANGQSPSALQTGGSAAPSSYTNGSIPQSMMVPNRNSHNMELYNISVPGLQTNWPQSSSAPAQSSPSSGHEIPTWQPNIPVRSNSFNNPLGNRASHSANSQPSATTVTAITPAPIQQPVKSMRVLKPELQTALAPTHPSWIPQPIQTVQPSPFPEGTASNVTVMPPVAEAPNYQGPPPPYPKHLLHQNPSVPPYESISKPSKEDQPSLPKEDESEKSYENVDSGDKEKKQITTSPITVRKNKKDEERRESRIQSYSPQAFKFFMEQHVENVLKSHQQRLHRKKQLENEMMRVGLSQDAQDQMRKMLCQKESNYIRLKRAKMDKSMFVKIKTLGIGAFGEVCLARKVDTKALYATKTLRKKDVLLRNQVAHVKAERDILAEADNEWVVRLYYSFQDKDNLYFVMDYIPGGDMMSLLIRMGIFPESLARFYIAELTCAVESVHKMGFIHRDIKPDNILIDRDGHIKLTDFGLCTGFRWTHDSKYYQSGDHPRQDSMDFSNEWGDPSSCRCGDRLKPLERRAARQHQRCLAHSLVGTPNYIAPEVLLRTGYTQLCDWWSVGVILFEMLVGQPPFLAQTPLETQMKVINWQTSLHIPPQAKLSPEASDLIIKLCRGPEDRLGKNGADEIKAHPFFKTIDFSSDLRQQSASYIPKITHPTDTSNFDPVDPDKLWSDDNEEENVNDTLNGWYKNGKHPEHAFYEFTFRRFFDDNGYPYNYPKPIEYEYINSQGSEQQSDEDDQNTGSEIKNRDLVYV

PRKD1 = PRKD1 (Homo sapiens, UniProt Q15139)
MELK = MELK (Homo sapiens, UniProt Q14680)
EPHB6 = EPHB6 (Homo sapiens, UniProt O15197)
CDC2L5 = target: T6, CDC2L5 (Homo sapiens, UniProt Q14004)
T6 construct: gene CDK13

WEE1 = WEE1 (Homo sapiens, UniProt P30291)
Sequence of WEE1 (P30291 whole entry): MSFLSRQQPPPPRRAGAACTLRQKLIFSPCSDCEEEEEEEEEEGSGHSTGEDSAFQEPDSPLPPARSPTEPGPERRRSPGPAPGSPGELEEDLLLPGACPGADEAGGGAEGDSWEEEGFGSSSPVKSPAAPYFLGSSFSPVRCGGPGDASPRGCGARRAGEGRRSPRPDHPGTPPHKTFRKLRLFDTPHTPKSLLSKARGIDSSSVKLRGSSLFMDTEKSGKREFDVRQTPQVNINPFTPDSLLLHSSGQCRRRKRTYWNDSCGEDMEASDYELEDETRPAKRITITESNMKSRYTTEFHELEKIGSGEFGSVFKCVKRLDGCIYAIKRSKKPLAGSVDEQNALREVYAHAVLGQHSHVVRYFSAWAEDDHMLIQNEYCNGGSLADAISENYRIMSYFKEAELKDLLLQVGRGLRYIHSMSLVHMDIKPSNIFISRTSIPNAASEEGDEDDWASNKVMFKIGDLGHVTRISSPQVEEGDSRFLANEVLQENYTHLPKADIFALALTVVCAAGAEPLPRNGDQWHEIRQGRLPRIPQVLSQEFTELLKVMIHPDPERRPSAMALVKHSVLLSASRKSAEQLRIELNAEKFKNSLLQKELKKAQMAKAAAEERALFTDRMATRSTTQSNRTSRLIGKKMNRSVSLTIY

EPHA2 = EPHA2 (Homo sapiens, UniProt P29317)
PKAC-alpha = target: T7, PKAC-alpha (Homo sapiens, UniProt P17612)
T7 construct: gene PRKACA

PAK2 = PAK2 (Homo sapiens, UniProt Q13177)
ACVRL1 = ACVRL1 (Homo sapiens, UniProt P37023)
Sequence of ACVRL1 (P37023 whole entry): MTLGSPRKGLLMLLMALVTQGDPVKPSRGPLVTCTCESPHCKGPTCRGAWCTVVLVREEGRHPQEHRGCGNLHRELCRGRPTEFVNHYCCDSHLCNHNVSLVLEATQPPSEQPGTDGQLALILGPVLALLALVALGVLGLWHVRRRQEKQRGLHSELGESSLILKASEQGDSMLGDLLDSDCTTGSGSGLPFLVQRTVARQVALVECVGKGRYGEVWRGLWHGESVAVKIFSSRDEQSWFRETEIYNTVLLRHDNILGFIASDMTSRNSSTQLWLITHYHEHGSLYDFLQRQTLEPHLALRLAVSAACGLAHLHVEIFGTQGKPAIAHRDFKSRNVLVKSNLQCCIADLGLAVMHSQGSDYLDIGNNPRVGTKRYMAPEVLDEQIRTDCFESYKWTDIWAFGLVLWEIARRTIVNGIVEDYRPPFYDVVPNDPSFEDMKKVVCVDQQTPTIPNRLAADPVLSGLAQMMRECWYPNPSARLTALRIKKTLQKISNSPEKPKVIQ

TAK1 = target: T8, TAK1 (Homo sapiens, UniProt O43318)
T8 construct: gene MAP3K7
T8 sequence (O43318 whole entry): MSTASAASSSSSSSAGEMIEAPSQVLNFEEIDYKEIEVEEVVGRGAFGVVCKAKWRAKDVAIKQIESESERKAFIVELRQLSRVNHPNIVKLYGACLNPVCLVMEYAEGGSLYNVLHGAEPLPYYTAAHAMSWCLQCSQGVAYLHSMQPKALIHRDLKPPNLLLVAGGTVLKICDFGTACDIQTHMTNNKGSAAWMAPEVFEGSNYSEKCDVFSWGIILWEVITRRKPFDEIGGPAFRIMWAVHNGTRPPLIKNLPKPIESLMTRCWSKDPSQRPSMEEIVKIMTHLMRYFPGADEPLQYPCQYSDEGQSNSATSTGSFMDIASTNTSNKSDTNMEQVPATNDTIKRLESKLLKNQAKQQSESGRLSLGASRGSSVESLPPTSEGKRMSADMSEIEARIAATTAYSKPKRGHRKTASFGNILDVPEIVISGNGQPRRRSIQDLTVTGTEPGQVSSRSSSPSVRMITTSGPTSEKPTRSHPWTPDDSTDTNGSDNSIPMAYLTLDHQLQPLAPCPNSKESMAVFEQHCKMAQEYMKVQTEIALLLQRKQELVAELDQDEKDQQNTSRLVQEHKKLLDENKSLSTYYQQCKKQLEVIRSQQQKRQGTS

[1] = target: T9, JAK1(JH1domain-catalytic) (Homo sapiens, UniProt P23458)
T9 construct: JH1domain-catalytic

PRKCE = PRKCE (Homo sapiens, UniProt Q02156)
Sequence of PRKCE (Q02156 whole entry): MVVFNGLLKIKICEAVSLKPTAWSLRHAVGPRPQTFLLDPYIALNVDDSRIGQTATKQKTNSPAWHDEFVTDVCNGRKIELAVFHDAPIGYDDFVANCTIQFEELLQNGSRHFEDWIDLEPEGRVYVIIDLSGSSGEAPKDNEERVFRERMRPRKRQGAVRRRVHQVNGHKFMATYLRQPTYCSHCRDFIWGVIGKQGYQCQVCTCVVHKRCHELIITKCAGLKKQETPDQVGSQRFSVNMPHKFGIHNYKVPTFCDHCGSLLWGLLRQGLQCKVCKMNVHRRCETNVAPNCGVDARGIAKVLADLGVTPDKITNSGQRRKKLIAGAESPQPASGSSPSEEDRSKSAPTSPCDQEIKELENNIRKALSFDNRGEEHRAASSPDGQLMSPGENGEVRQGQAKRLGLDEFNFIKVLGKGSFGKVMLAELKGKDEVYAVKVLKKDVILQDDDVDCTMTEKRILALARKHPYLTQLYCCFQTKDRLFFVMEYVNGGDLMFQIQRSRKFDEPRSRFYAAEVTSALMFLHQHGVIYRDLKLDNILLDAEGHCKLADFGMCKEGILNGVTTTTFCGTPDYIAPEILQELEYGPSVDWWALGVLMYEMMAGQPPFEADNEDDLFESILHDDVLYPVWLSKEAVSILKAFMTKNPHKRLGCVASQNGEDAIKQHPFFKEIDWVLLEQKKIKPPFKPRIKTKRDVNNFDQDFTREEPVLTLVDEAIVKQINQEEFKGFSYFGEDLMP

SNARK = target: T10, SNARK (Homo sapiens, UniProt Q9H093)
T10 construct: gene NUAK2

Structure (SMILES) | remaining binding at 10 µM (PIK3CA(I800L)) [%] | remaining binding at 10 µM (LKB1) [%] | remaining binding at 10 µM (EGFR(G719S)) [%] | remaining binding at 10 µM (MINK) [%] | remaining binding at 10 µM (NDR1) [%] | remaining binding at 10 µM (NIM1) [%] | remaining binding at 10 µM (DAPK3) [%] | remaining binding at 10 µM (p38-beta) [%] | remaining binding at 10 µM (EGFR(S752-I759del)) [%] | remaining binding at 10 µM (LATS1) [%] | remaining binding at 10 µM (PRKD1) [%] | remaining binding at 10 µM (MELK) [%] | remaining binding at 10 µM (EPHB6) [%] | remaining binding at 10 µM (CDC2L5) [%] | remaining binding at 10 µM (WEE1) [%] | remaining binding at 10 µM (EPHA2) [%] | remaining binding at 10 µM (PKAC-alpha) [%] | remaining binding at 10 µM (PAK2) [%] | remaining binding at 10 µM (ACVRL1) [%] | remaining binding at 10 µM (TAK1) [%] | other results
COc1ccc(-c2cnccc2-c2cnc(NC(=O)C(C)C)s2)c(C(F)(F)F)c1 [CRT0105446, N-{5-[3-(4-Methoxy-2-trifluoromethyl-phenyl)-pyridin-4-yl]-hiazol-2-yl}-isobutyramide] | 100 | 100 | 94 | 100 | 100 | 100 | 83 | 100 | 84 | 91 | 88 | 100 | 86 | 14 | 87 | 100 | 100 | 80 | 100 | 79 | remaining binding at 10 µM [1]: 89%; remaining binding at 10 µM (PRKCE): 72%; remaining binding at 10 µM (SNARK): 84%
Cc1ccc(-c2cnccc2-c2cnc(Nc3ccc(O)cc3)s2)c(Cl)c1 [CRT0105950, 4-{5-[3-(2-Chloro-4-methyl-phenyl)-pyridin-4-yl]-thiazol-2-ylamino}-phenol] | 100 | 79 | 75 | 13 | 86 | 100 | 44 | 93 | 69 | 23 | 18 | 11 | 17 | 26 | 48 | 70 | 41 | 76 | 100 | 33 | remaining binding at 10 µM [1]: 53%; remaining binding at 10 µM (PRKCE): 55%; remaining binding at 10 µM (SNARK): 31%
